In patent US7375124B2, “Use of α-phenylthiocarboxylic and α-phenyloxycarboxylic acids with serum-glucose-lowering and serum-lipid-lowering activity” (Sigma-Tau Industrie Farmaceutiche Riunite S.p.A., priority 2002, dated 2008):

Tests used:
[1] = target: T1, PPARγ (Mus musculus, UniProt P37238); assay: Transactivation assay mediated by PPARγ in NIH-3T3 cells (CAT reporter); format: cell-based
T1 construct: expressed in transfected cells; host or cells: NIH-3T3 (mouse embryonal fibroblasts)
T1 sequence (P37238 1-475 isoform P37238-2): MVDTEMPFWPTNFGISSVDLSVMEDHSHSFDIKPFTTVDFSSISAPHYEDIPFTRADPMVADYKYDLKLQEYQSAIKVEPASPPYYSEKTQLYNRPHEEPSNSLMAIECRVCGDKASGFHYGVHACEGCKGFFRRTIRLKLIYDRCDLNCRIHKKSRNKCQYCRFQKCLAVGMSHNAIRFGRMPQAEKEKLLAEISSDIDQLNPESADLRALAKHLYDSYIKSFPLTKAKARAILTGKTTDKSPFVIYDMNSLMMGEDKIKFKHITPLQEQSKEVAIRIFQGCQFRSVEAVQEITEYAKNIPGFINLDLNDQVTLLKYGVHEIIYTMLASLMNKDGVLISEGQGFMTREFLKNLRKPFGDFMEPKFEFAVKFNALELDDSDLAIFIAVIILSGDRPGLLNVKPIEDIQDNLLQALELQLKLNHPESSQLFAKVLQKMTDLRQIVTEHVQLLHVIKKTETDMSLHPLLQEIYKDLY
Text: A transactivation assay specific for PPARγ thus requires the simultaneous presence of the following in the preselected cell line: • a) a sufficient amount of PPARγ; • b) a sufficient amount of the 9 cis-retinoic acid receptor (RXR); • c) a chimeric plasmid containing the reporter gene controlled by a PPRE, located upstream of a viral heterologous promoter. In our case the reporter gene is chloramphenicol-acetyl transferase (CAT).
In the transactivation assay used, the preselected cells are transfected with the expression vector pSG5 Stop-mPPARg1 which allows the synthesis of the PPARγ receptor by the transfected cell. Simultaneously, a plasmid reporter (pBLCAT2-PPRE) is transfected which contains a peroxisome proliferator response element (PPRE) isolated by the gene promoter for acyl-CoA oxidase, upstream of the heterologous promoter of viral thymidine kinase (TK) fused with the reporter gene CAT. Since the endogenous cell levels of the RXR receptor are sufficiently high, it is not necessary to transfect an expression vector specific for RXR as well. […] Therefore, any increase in CAT levels will be the result of increased gene transcription dependent upon the dimerisation of PPARγ with RXR and upon the heterodimer bond formed with the peroxisome proliferator response element. Together with the expression vector and the reporter vector the cells are also transfected with the plasmid pCH110 which provides the internal control for the efficiency of transfection and the normalisation of the results
A cell line of mouse embryonal fibroblasts (NIH-3T3) was used [Hogan J. C. et al., Biochem Biophys Res Commun. 287 (2), 484-92 (2001)]. The cells were transfected with the reporter plasmid, the expression plasmid coding for the PPARγ receptor and the control vector pCH110. The cells were exposed to increasing concentrations of the study compounds and CAT activity was evaluated. Untreated cells were used as controls.
(§1) Mouse embryonal fibroblasts (NIH-3T3) were cultured according to the usual cell culture techniques, at 37° C. in a 5% v/v carbon dioxide atmosphere using as the growth medium DMEM (Dulbecco's modified Eagle's medium) modified with 3.7 g/l of sodium bicarbonate, 4 mM L-glutamine, 4.5 g/l of glucose, 1 mM sodium pyruvate and 10% v/v of calf serum, in the presence of streptomycin 100 μg/ml and penicillin 100 U/ml final.
The cells were co-transfected using the transfection reagent FuGENE6 (Roche), already described in the previous example. Twenty-four hours prior to transfection the cells were plated at a density of 8.0×10^4 cells/well in 12-well plates and maintained at 37° C. in a 5% v/v CO2 atmosphere. The culture medium, devoid of serum, was replaced 2 hours before transfection, and then the cells were treated with the transfection reagent FuGENE6, as described in the previous example. After 5 hours, the transfection medium was replaced by 1 ml of culture medium complete with serum and antibiotics in the presence or absence of the molecules to be tested at 3 different concentrations (2, 20 and 100 μM). Rosiglitazone, a known ligand of PPARγ, was used as the positive reference compound.
The cell protein extracts were prepared and the CAT activity assay was conducted exactly as described in the previous example.
As an internal control for the normalisation of the CAT activity in relation to the transfection efficiency, β-galactosidase activity coded for by the corresponding gene in the co-transfected plasmid pCH110 was used.
β-galatosidase activity was measured exactly as described in the previous example.
For the normalisation of the CAT assay results in relation to […] activity the formula described in the previous example was used.

[2] = target: T2, mPPARαLBD/Gal4DBD (Mus musculus, UniProt P23204); assay: Transactivation assay mediated by mPPARαLBD/Gal4DBD in COS-7 cells (CAT reporter); format: cell-based
T2 construct: expressed in transfected cells; host or cells: COS-7 (monkey kidney fibroblasts)
T2 sequence (P23204 239-466 limits assumed): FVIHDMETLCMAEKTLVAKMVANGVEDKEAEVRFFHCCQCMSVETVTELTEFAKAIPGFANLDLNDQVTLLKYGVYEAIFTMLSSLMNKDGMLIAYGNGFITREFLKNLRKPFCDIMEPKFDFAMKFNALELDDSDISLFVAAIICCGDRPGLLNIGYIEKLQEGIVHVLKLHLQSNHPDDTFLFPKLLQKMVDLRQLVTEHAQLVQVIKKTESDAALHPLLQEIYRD
Text: In this model a transactivation assay is used in which the expression vector mPPARαLBD/Gal4 DBD allows the synthesis by the transfected cell of a chimeric protein, in which the ligand binding domain (LBD) of PPARα is fused with the DNA binding domain (DBD) of the transcription factor GAL4 of yeast [Luckow B. et al., Nucleic Acids Res. 15, 5490 (1987)]. Simultaneously, a plasmid (pG5CAT) is transfected which contains 5 copies of the high-affinity binding site for GAL4 (also called UAS, upstream activating sequence), upstream of the viral promoter E1b fused with the CAT reporter gene [Moya-Camarena S. Y. et al., J. Lipid Res. 40 (8), 1426-33 (1999)]. This model eliminates interference by possible endogenous receptors.
This is due to the fact that the activation of E1b and the production of CAT will occur exclusively thanks to the interaction of GAL4 DBD with its own response element (UAS). Since the transcription factor GAL4 is not expressed in […] cells, transactivation of the reporter gene can take place only when, as a result of the interaction of a ligand with the LBD of PPARα, the chimeric protein PPARα/GAL4 recognises the UAS sequence on the plasmid pG5CAT. Together with the expression vector and the reporter vector the cells were also transfected with the plasmid pCH110 which provides the internal control for the efficiency of transfection and the normalisation of the results.
A monkey kidney fibroblast cell line (COS-7) was used [Elbrecht A. et al., J. Biol. Chem. 274 (12), 7913-22 (1999)]. The cells were co-transfected with the reporter vector, the expression plasmid coding for the fusion protein Gal4 DBD/PPARαLBD and the control vector pCH110. The cells were exposed to increasing concentrations of the study compounds and CAT activity was evaluated. Untreated cells were used as controls.
as §1, with “Monkey kidney” for “Mouse embryonal”, “(COS-7)” for “(NIH-3T3)”, “foetal bovine” for “calf”
The cells were co-transfected using the transfection reagent FuGENE6 (Roche), consisting of a defined mixture of lipids capable of complexing the DNA and of transporting it into the cells. Twenty-four hours prior to transfection the cells were plated at a density of 1.2×10^5 cells/well in 12-well plates and maintained at 37° C. in a 5% v/v CO2 atmosphere. […] Briefly, the transfection mixture containing 0.8 μg of the expression vector, 1.6 μg of the reporter vector, 0.8 μg of the control vector and 9 μl of the FuGENE6 reagent per well was added directly to the cells in the presence of culture medium devoid of serum. After 5 hours, the transfection medium was replaced by 1 ml of culture medium complete with serum and antibiotics in the presence or absence of the molecules to be tested at 3 different concentrations (2, 20 and 100 μM). Wy-14,643 (2 μM), a known ligand of PPARα, was used as the positive reference compound.
After 48 hours' incubation at 37° C. in a 5% v/v CO2 atmosphere, the cells were washed twice with 1 ml of phosphate buffer (PBS) and removed mechanically from the wells in TEN buffer (Tris[hydroxymethyl]aminomethane 10 mM pH 8, ethylenediamine-tetraacetic acid 1 mM pH 8, sodium chloride 0.1 M). After centrifuging for 3 minutes at 1000 rpm, the cells were resuspended in 65 μl of lysis buffer (Tris-HCl 0.25 M, pH 8) and then lysed thanks to three rapid freeze-thaw cycles. The insoluble cellular materials (debris) were removed by centrifuging at 15,000 rpm for 15 minutes at 4° C., and the supernatant was recovered and used for the CAT and β-galactosidase activity assays. […]

COC(=O)C(C)(C)Sc1cccc(OCCn2c3ccccc3c3ccccc32)c1 [Example 6, methyl 2-[3-(2-(carbazol-9-yl)ethoxy)phenylthio]isobutyrate]
melting point: 101 to 103 °C

COC(=O)C(C)(C)Sc1ccc(OCCn2c3ccccc3c3ccccc32)cc1 [Example 7, methyl 2-[4-(2-(carbazol-9-yl)ethoxy)phenylthio]isobutyrate]
melting point: 72 to 74 °C

COC(=O)C(C)(C)Sc1ccc(OCCc2ccc3ccccc3c2)cc1 [Example 11, methyl 2-[4-[2-(2-naphthyl)ethoxy]phenylthio]isobutyrate]
melting point: 56 to 57 °C

CC(C)(Sc1ccc(OCCc2ccc(Cl)cc2)cc1)C(=O)O [Example 12, 2-[4-[2-(4-chlorophenyl)ethoxy]phenylthio]-2-methylpropanoic acid]
melting point: 87 to 88 °C

CC(C)(Sc1cccc(OCCc2ccc(Cl)cc2Cl)c1)C(=O)O [Example 13, 2-[3-(2-(2,4-dichlorophenyl)ethoxy)phenylthio]-2-methylpropanoic acid]
Activation of the gene-reporter CAT as a percentage of the reference compound (rosiglitazone 2 μM = 100%) ([1]; 2 μM): 61.6%
Activation of the gene-reporter CAT as a percentage of the reference compound (rosiglitazone 2 μM = 100%) ([1]; 20 μM): 91.6%
Activation of the gene-reporter CAT as a percentage of the reference compound (rosiglitazone 2 μM = 100%) ([1]; 100 μM): 101%
Activation of reporter gene CAT as a percentage of the reference compound (WY-14,643 2 μM = 100%) ([2]; 2 μM): 132.3%
Activation of reporter gene CAT as a percentage of the reference compound (WY-14,643 2 μM = 100%) ([2]; 20 μM): 199.3%
Activation of reporter gene CAT as a percentage of the reference compound (WY-14,643 2 μM = 100%) ([2]; 100 μM): 203.8%

CC(C)(Sc1cccc(OCCc2ccc3ccccc3c2)c1)C(=O)O [Example 18, 2-[3-[2-(2-naphthyl)ethoxy]phenylthio]-2-methylpropanoic acid]
Activation of the gene-reporter CAT as a percentage of the reference compound (rosiglitazone 2 μM = 100%) ([1]; 2 μM): 25%
Activation of the gene-reporter CAT as a percentage of the reference compound (rosiglitazone 2 μM = 100%) ([1]; 20 μM): 67%
Activation of the gene-reporter CAT as a percentage of the reference compound (rosiglitazone 2 μM = 100%) ([1]; 100 μM): 82.2%
Activation of reporter gene CAT as a percentage of the reference compound (WY-14,643 2 μM = 100%) ([2]; 2 μM): 85%
Activation of reporter gene CAT as a percentage of the reference compound (WY-14,643 2 μM = 100%) ([2]; 20 μM): 96.4%
Activation of reporter gene CAT as a percentage of the reference compound (WY-14,643 2 μM = 100%) ([2]; 100 μM): 151.9%

CC(C)(Sc1ccc(OCCc2ccc3ccccc3c2)cc1)C(=O)O [Example 19, 2-[4-[2-(2-naphthyl)ethoxy]phenylthio]-2-methylpropanoic acid]
melting point: 103 to 104 °C

COC(=O)C(C)(C)Sc1cccc(OCc2ccc(-c3ccc([N+](=O)[O-])cc3)o2)c1 [Example 22, methyl 2-[3-[5-(4-nitrophenyl)furfuryloxy]phenylthio]isobutyrate]
melting point: 81 to 82 °C

CC(C)(Sc1cccc(OCc2ccc(-c3ccc([N+](=O)[O-])cc3)o2)c1)C(=O)O [Example 25, 2-methyl-2-[3-[5-(4-nitrophenyl)furfuryloxy]phenylthio]propanoic acid]
melting point: 137 to 138 °C
